Measured values reported in patent publication US8361780B2, “Biological system and assay for identifying modulators of tubulin ligases” (University of Georgia Research Foundation, Inc., priority 2005, dated 2013).

How the values were obtained:
[1] = test system: Tetrahymena; conditions: cited from earlier work
[2] = test system: cytoplasmic microtubules of wild-type Tetrahymena cells; assay: Stability of cell body microtubules against microtubule-destabilizing compounds, wild-type cells; format: cell-based, Tetrahymena thermophila; conditions: nocodazole 40 μM, oryzalin 10 μM, 30 min
Method: (§1) Immunofluorescence and electron microscopy. GFP-Ttll6Ap-expressing cells were grown in SPP with 0.5 to 2.5 μg of CdCl2/ml for 2 to 4 h. For GFP-Ttll6Ap localization, a 10-μl drop of cells was placed on a coverslip, followed by the addition of 20 μl of 2% paraformaldehyde in PHEM buffer (Schliwa and van Blerkom. 1981. J. Cell Biol. 90:222-235) and, after 20 s, the addition of 10 μl of 0.5% Triton X-100 in PHEM. The cells were subjected to immunofluorescence (Janke et al., 2005. Science 308:1758-1762) with the following primary antibodies: 12G10, an anti-α-tubulin monoclonal antibody (MAb) (Jerka-Dziadosz et al., 1995. Dev. Biol. 169:644-661) at 1:50; MAb ID5 (40), which in Tetrahymena is specific to polyglutamylated tubulin (Wloga et al., 2008. Eukaryot. Cell 7:1362-1372), at 1:50; poly(E) antipolyglutamic acid antibodies (1:100) (Shang et al., 2002. J. Cell Biol. 158:1195-1206); TAP952, an anti-monoglycylated tubulin MAb (1:5,000) (Bré et al., 1998. Mol. Biol. Cell 9:2655-2665; Callen et al., 1994. Biol. Cell 81:95-119); and 6-11 B-1, an anti-acetyl-K40 α-tubulin MAb (1:200) (LeDizet and Piperno. 1991.

[3] = test system: cell body microtubules of GFP-Ttll6Ap-overexpressing Tetrahymena cells; assay: Stability of cell body microtubules against microtubule-destabilizing compounds, GFP-Ttll6Ap-overexpressing cells; format: cell-based, Tetrahymena thermophila; conditions: nocodazole 40 μM, oryzalin 10 μM, 30 min
Method: as §1

[4] = test system: GFP-Ttll6Ap-overproducing Tetrahymena cells; assay: Cilium length in paclitaxel-treated GFP-Ttll6Ap-overproducing cells (immunofluorescence); format: cell-based, Tetrahymena thermophila; conditions: 40 μM paclitaxel for 3 h
Method: as §1, with “1991. Methods Enzymol. 196:264-274). The secondary goat antibodies were as follows: anti-mouse-FITC, anti-mouse-Cy3, anti-rabbit-Cy3, and anti-rabbit-Cy5 (Zymed) at 1:200 dilutions. Cells were viewed under either Leica TCS SP or Zeiss LSM 510 VIS/META confocal microscopes. To measure the length of the cilia, the cells were labeled with MAb 12G10, [and, in some experiments, double labeled with poly(E) antibodies]. Confocal images were recorded with a 0.8-μm distance between z-sections, and sets of two to four z-sections were merged. The lengths of the cilia were measured by using ImageJ 1.37. For transmission electron microscopy (TEM), the cells were prepared as described previously (Jerka-Dziadosz et al., 2001. Protist 152:53-67).” for “1991.”

[5] = test system: 3AB-KO Tetrahymena cells; assay: Axoneme elongation by paclitaxel in 3AB-KO cells (immunofluorescence); format: cell-based, Tetrahymena thermophila; conditions: 25 μM paclitaxel for 4 hr
Method: Cultures. Tetrahymena thermophila cells were grown in SPP medium. To determine the growth rate, cells were diluted to 10^4 cells/ml and grown in 10 ml of SPP in 150 ml flasks. In some experiments, paclitaxel (LC Laboratories, Woburn, Mass.) was added to the SPP medium. WT in Kalkutta and Tupfel longfin (commonly known as “WIK” and “TL”, respectively) zebrafish were raised at 28° C. at 14 hr light/10 hr dark cycle. The embryos were cultured in egg water at 28° C.
Immunofluorescence and Electron Microscopy of Tetrahymena. Immuno-fluorescence was done as previously described (Wloga et al., 2006. Mol. Biol. Cell 17, 2799-2810) and quantified using mixed mutant and WT cells (fed with India ink) imaged side by side. The average pixel intensity was determined for sections of axonemes from the base to below the tip using ImageJ. TEM was performed as previously described (Jerka-Dziadosz et al., 2001. Protist 152, 53-67). For immunoelectron TEM, cells were fixed as for immunofluorescence, reacted with anti-GFP antibodies (1:1000; Abcam) in 3% bovine serum albumin (BSA) in the PHEM buffer with 0.1% Tween-20 for 2 hr, followed by anti-rabbit IgG-10 nm gold antibodies (GE Healthcare) at 1:60 in 3% BSA in PBS for 1.5 hr. […] After washing, cells were dehydrated in an ethanol series, embedded in Epon, sectioned, and analyzed in a JEM 1210 electron microscope.

[6] = test system: wild-type Tetrahymena cells; assay: Axoneme/cilium length in paclitaxel-treated wild-type cells (immunofluorescence); format: cell-based, Tetrahymena thermophila
Method: as §1, with “1991. Methods Enzymol. 196:264-274). The secondary goat antibodies were as follows: anti-mouse-FITC, anti-mouse-Cy3, anti-rabbit-Cy3, and anti-rabbit-Cy5 (Zymed) at 1:200 dilutions. Cells were viewed under either Leica TCS SP or Zeiss LSM 510 VIS/META confocal microscopes. […] Confocal images were recorded with a 0.8-μm distance between z-sections, and sets of two to four z-sections were merged. The lengths of the cilia were measured by using ImageJ 1.37. […]” for “1991.”
Immunofluorescence and Electron Microscopy of Tetrahymena. Immuno-fluorescence was done as previously described (Wloga et al., 2006. Mol. Biol. Cell 17, 2799-2810) and quantified using mixed mutant and WT cells (fed with India ink) imaged side by side. The average pixel intensity was determined for sections of axonemes from the base to below the tip using ImageJ. […] After washing, cells were dehydrated in an ethanol series, embedded in Epon, sectioned, and analyzed in a JEM 1210 electron microscope.

[7] = test system: zebrafish embryos; assay: Expression pattern of lefty2 in zebrafish embryos (in situ hybridization); format: in vivo
Text: (§2) MO Knockdowns in Zebrafish Embryos. TTLL3-ATG MO (5′ […] 3′; SEQ ID NO:129) and TTLL3-SP MO (5′ […] 3; SEQ ID NO:130) were obtained from Open Biosystems (Huntsville, AL). TTLL3-ATG targets the translation initiation site of ttll3 mRNA. TTLL3-SP is predicted to prevent splicing of exon 11 and cause a frame shift in exon 12. This would eliminate the coding sequence downstream of exon 10, which includes a conserved catalytic domain-encoding region. To evaluate the effect of TTLL3-SP on ttll3 mRNA, total RNA was isolated with TRIzol reagent (Invitrogen, Inc., Carlsbad, Calif.) from embryos at 7 hpf: 50 uninjected control embryos, 40 embryos injected with 3 ng TTLL3-SP MO, or 30 embryos injected with 5 ng TTLL3-SP MO. Total RNA ([…]) was used as a template for cDNA synthesis with random hexamers and oligo-dT primers and the iScript TM cDNA synthesis kit (Bio-Rad Laboratories, Hercules, Calif.). cDNA ([…]) was amplified with the following primers spanning exon 11: TTLL3-splice F, 5′-[…]-3′ (exon 10; SEQ ID NO:131); TTLL3-splice R, 5′-[…]-3′ (exon 12; SEQ ID NO:132). As expected, primers flanking exon 11 produced a shorter product in RT-PCR from embryos injected with TTLL3-SP than in controls (FIG. 50D). […] As a negative control, we injected 25 base MOs with a random base mixture at each position (Gene Tools, Inc., Philomath, Oreg.).
(§3) Microscopy of Zebrafish. For whole-mount, in situ hybridization, embryos were fixed as previously described (Hagos and Dougan, 2007), stored in 100% methanol at −20° C., and stained with spaw, lefty1, lefty2, and cmlc2 probes (Yelon, 2001). Embryos were photographed under differential interference contrast with a Zeiss Axioplan 2 microscope with Slidebook (Intelligent Imaging Innovations, Denver, Colo.). For immunofluorescence, the embryos were manually dechorionated and fixed with 0.5% Triton X-100 and 4% paraformaldehyde in PBT (0.1% Tween-20 in PBS) at 4° C. overnight. After washing with PBT, embryos were dehydrated in methanol/PBT series and incubated overnight in 100% methanol at −20° C. After rehydration, embryos were blocked for 1-2 hr in 2% BSA, 0.5% normal goat serum,l%DMSO, 0.5% Triton X-100 in PBS, and incubated overnight at 4° C. with one of the following antibodies: 6-11 B-1 (1:1000); TAP952 (1:2000); AXO49 (1:2000); and GT335 (1:1000); polyE (1:500). After washing 3×10 min with 0.5% Triton X-100 in PBS, embryos were incubated overnight at 4° C. in anti-mouse-IgG-FITC or anti-rabbit-IgG-Cy3 (1:500; Zymed), washed (3×10 min), mounted in 100 mg/ml of DABCO (Sigma-Aldrich) in PBS, and examined on a Leica TCS SP confocal microscope.

[8] = test system: zebrafish embryos; assay: Heart position in zebrafish embryos, scoring live embryos; format: in vivo
Text: as §2

[9] = test system: zebrafish embryos; assay: Morphology of zebrafish morphant embryos; conditions: in vivo
Text: as §2

[10] = test system: zebrafish embryos; assay: Expression pattern of southpaw in zebrafish embryos (in situ hybridization); format: in vivo
Text: as §2, §3

[11] = test system: zebrafish embryos; assay: Heart position in zebrafish embryos, in situ hybridization; format: in vivo
Text: as §2, §3

[12] = test system: zebrafish embryos; assay: Tubulin monoglycylation in cilia of zebrafish embryos (TAP952 immunofluorescence); format: in vivo
Text: as §2, §3

[13] = GFP-Ttll6Ap-overexpressing cells

C[S+](C)[O-] [DMSO]
concentration tolerated well [1]: up to 2.5%

COC(=O)Nc1nc2ccc(C(=O)c3cccs3)cc2[nH]1 [nocodazole]
effect on cytoplasmic microtubules [2]: rapid depolymerization of cytoplasmic microtubules
effect on cell body microtubules [3]: retained abundant cell body microtubules

CC(=O)O[C@H]1C(=O)[C@@]2(C)[C@H]([C@H](OC(=O)c3ccccc3)[C@]3(O)C[C@H](OC(=O)[C@H](O)[C@@H](NC(=O)c4ccccc4)c4ccccc4)C(C)=C1C3(C)C)[C@]1(OC(C)=O)CO[C@@H]1C[C@@H]2O [paclitaxel]
elongation of preexisting cilia [4, 13]: 22%
length of preexisting cilia, paclitaxel treated [4, 13]: 6.39±0.82 μm
length of assembling cilia, paclitaxel treated ([4]; GFP-Ttll6Ap-overproducing cells): 2.7±0.6 μm
change of length of assembling cilia ([4]; GFP-Ttll6Ap-overproducing cells, vs no drug): 44%
elongation of axonemes [5]: not observed
effect on axonemes ([6]; 25 μM paclitaxel for 4 hr): remarkable elongation of axonemes
increase of the average axoneme length ([6]; 40 μM paclitaxel for 3 h): 20%
axoneme length after treatment ([6]; 40 μM paclitaxel for 3 h, n=173): 6.05±1.12 μm

TTLL3-ATG-MO: antisense morpholino 5′ GTGTTGGTGCATGTTTGAGTTAACC 3′; targets the translation initiation site of ttll3 mRNA (all phosphorodiamidate morpholino (PMO))
lefty2 expression: Bilatera or midline, number of embryos [7]: 5
lefty2 expression: Bilatera or midline, percent of embryos [7]: (11.9%)
lefty2 expression: No specific signal, number of embryos [7]: 8
lefty2 expression: No specific signal, percent of embryos [7]: (19%)
lefty2 expression: left, number of embryos [7]: 15
lefty2 expression: left, percent of embryos [7]: (35.7%)
lefty2 expression: right, number of embryos [7]: 14
lefty2 expression: right, percent of embryos [7]: (33.4%)
heart position left, number of embryos [8]: 56
heart position left, percent of embryos [8]: 50%
heart position middle, number of embryos [8]: 33
heart position middle, percent of embryos [8]: 29.5%
heart position right, number of embryos [8]: 23
heart position right, percent of embryos [8]: (20.5%)
hydrocephalic morphants [9]: 10%
morphant embryos with curly tail [9]: 76%
southpaw expression: Bilatera or midline, number of embryos [10]: 34
southpaw expression: Bilatera or midline, percent of embryos [10]: (43.7%)
southpaw expression: No specific signal, number of embryos [10]: 19
southpaw expression: No specific signal, percent of embryos [10]: (24.3%)
southpaw expression: left, number of embryos [10]: 14
southpaw expression: left, percent of embryos [10]: (17.9%)
southpaw expression: right, number of embryos [10]: 11
southpaw expression: right, percent of embryos [10]: (14.1%)
heart position left, number of embryos [11]: 21
heart position left, percent of embryos [11]: 50%
heart position middle, number of embryos [11]: 7
heart position middle, percent of embryos [11]: 16.7%
heart position right, number of embryos [11]: 14
heart position right, percent of embryos [11]: (33.3%)
levels of tubulin monoglycylation/glycylation in cilia ([12]; 72 hpf, TTLL3-ATG MO 1 ng, TTLL3-SP MO 3 ng): greatly reduced
morphants with TAP952 signal not detected in cilia of the distal part of pronephric duct ([12]; n=46): 98%
morphants with TAP952 signal not detected in cilia of the medial part of pronephric duct ([12]; n=46): 61%
morphants with TAP952 signal not detected in cilia of the spinal cord ([12]; n=46): 89%
